Patent publication US7435733B2, “Mineralocorticoid receptor modulator compounds and methods, and pharmaceutical compositions containing these compounds” (Ligand Pharmaceuticals, Inc., priority 2004, dated 2008)

Target: T1, human mineralocorticoid receptor protein (MR) (Homo sapiens, UniProt P08235)
T1 construct: made in house; host or cells: Spodoptera frugiperda Sf21 insect cells (baculovirus)
T1 sequence (P08235 1-984): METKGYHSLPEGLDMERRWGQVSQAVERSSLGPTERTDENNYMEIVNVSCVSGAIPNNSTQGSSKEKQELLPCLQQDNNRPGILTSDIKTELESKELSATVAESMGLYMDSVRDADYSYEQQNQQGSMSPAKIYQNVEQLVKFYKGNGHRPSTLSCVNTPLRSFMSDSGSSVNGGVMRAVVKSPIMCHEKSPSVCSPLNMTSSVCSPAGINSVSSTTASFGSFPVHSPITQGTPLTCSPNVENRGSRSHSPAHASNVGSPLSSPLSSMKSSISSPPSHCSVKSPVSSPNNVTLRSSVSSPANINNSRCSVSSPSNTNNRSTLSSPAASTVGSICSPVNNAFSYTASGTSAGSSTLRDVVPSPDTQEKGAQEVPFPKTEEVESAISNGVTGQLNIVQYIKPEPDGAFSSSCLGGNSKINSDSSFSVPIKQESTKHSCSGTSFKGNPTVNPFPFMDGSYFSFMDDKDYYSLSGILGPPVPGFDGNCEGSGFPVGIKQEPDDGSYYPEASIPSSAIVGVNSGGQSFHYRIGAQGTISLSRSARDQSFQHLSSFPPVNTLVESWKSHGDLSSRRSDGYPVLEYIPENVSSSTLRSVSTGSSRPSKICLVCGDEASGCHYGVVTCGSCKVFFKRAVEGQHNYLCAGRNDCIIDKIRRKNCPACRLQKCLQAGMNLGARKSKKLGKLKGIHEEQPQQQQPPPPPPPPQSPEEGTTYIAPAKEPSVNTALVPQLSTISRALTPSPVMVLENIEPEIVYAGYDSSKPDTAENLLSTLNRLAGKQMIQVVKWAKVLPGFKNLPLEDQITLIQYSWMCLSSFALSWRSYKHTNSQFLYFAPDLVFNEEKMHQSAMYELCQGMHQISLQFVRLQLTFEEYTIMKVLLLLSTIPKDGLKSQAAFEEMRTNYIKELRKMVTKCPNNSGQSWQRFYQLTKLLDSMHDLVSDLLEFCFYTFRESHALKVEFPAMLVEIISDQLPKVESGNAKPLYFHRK
Assay: Mineralocorticoid receptor binding assay ([3H]aldosterone displacement, MR lysate)
Conditions: baculovirus-expressed MR lysate from Sf21 cells; 2-4 nM [3H]aldosterone; 16 hours at 4° C.; Cheng-Prusoff from IC50
Description: A baculovirus expression plasmid comprising cDNA encoding the human mineralocorticoid receptor protein (MR) was prepared using standard techniques. See e.g. E. A. Allegretto et. al. 268 J. Biol. Chem., 26625 (1993); G. Srinivasan and B. Thompson, 4 Mol. Endo., 209 (1990); and D. R. O'Reilly et. al., in “Baculovirus Expression Vectors”, D. R. O'Reilly et. al., eds., W.H. Freeman, New York, N.Y., pp. 139-179 (1992). That expression plasmid was co-transfected together with wild type Autographa californica multiple nuclear polyhedrosis virus DNA into Spodopter frugiperda-21 (Sf-21) cells to generate recombinant virus comprising MR cDNA. See e.g. O'Reilly, D. R., Miller, L. K., Luckow, V. A., Regulation of expression of a baculovirus ecdysteroid UDP glucosyltransferase gene. “Baculovirus Expression Vectors.” WH Freeman, N.Y., 139-179 (1992). […]
After incubation, 200 μl of 6.25% hydroxylapatite in assay buffer was added to each assay sample to precipitate the protein. […] Radioactivity in counts per minute (CPM) of each washed pellet was determined by liquid scintillation counter (MicroBeta™, Wallach).
Specific binding for a particular sample was calculated using the equation: (Sample CPM)−(Average Non-specific CPM) Average Non-specific CPM was defined as the amount of radioactivity from samples comprising an excess (i.e. 1000 nM) of unlabeled aldosterone. […]

| Ki [nM] | Structure (SMILES) |
| --- | --- |
| 650 | N#Cc1cccc(-c2ccc3c4c2CCCC4OC(=O)N3)c1 (racemic) [Compound 102, (±)-7,8,9,9a-Tetrahydro-6-(3-cyanophenyl)-3H-naphtho[1,8-de][1,3]oxazin-2-one] |
| 335 | O=C1Nc2ccc(-c3cccc(C(F)(F)F)c3)c3c2C(CCC3)O1 (racemic) [Compound 101, (±)-7,8,9,9a-Tetrahydro-6-[(3-trifluoromethyl)phenyl]-3H-naphtho[1,8-de][1,3]oxazin-2-one] |
